Measurements: ChEMBL document CHEMBL5150077, “Identification of TUL01101: A Novel Potent and Selective JAK1 Inhibitor for the Treatment of Rheumatoid Arthritis” (J Med Chem, 2022)
Activity calls are given as the source filed them. No cut-off for these calls is given here.

Assays:
[1] = Plasma protein binding in human assessed as unbound fraction at 2 uM incubated for 4 hrs by LC/MS/MS based balanced dialysis method
[2] = Apparent permeability across apical to basolateral side in human Caco-2 cells at 10 uM measured after 120 mins by LC-MS/MS analysis; details: for Papp A→B at 2 h, 10 µM: Caco-2
[3] = biological target: T1, Cytochrome P450 2C8 (Homo sapiens, UniProt P10632); experiment: Inhibition of CYP2C8 in human liver microsomes incubated in presence NADPH by LC-MS/MS analysis
T1 sequence (P10632 whole entry): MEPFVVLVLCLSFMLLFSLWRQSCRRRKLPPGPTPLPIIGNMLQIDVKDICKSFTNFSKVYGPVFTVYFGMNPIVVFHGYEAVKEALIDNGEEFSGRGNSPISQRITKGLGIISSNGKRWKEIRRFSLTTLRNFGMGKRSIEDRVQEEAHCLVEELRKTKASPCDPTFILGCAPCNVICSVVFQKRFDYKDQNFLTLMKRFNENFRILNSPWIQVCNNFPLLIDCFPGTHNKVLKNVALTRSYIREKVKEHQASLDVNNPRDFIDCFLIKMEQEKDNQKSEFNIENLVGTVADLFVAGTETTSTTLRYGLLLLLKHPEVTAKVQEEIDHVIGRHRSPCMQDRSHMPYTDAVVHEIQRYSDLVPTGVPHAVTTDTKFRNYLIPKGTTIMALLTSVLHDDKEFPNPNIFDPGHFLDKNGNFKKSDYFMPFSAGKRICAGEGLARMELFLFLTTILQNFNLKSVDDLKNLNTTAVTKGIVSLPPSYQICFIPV

[4] = biological target: T2, Cytochrome P450 2B6 (Homo sapiens, UniProt P20813); experiment: Inhibition of CYP2B6 in human liver microsomes incubated in presence NADPH by LC-MS/MS analysis
T2 sequence (P20813 whole entry): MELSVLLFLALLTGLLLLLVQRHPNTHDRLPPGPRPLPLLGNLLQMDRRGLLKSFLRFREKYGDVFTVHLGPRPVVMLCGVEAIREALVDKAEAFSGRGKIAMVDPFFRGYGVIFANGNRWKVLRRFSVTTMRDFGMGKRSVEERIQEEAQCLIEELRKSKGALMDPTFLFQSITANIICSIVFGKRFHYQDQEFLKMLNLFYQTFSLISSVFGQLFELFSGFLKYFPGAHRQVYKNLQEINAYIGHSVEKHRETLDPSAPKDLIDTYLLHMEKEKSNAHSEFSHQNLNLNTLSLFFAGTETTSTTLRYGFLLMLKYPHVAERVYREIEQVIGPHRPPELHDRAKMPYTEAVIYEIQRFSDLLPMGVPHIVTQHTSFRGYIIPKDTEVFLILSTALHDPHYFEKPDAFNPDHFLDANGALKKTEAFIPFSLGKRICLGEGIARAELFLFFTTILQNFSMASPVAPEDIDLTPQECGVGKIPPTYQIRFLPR

[5] = Plasma protein binding in mouse assessed as unbound fraction at 2 uM incubated for 4 hrs by LC/MS/MS based balanced dialysis method
[6] = Metabolic stability in mouse hepatocytes assessed as intrinsic clearance at 1 uM incubated for 90 mins by LC/MS/MS analysis; format: ADME, cell-based, Hepatocyte
[7] = Metabolic stability in human hepatocytes assessed as intrinsic clearance at 1 uM incubated for 90 mins by LC/MS/MS analysis; format: ADME, cell-based, Hepatocyte
[8] = biological target: Cytochrome P450 2C19 (Homo sapiens, UniProt P33261); experiment: Inhibition of CYP2C19 in human liver microsomes incubated in presence NADPH by LC-MS/MS analysis
Sequence of Cytochrome P450 2C19 (P33261 whole entry): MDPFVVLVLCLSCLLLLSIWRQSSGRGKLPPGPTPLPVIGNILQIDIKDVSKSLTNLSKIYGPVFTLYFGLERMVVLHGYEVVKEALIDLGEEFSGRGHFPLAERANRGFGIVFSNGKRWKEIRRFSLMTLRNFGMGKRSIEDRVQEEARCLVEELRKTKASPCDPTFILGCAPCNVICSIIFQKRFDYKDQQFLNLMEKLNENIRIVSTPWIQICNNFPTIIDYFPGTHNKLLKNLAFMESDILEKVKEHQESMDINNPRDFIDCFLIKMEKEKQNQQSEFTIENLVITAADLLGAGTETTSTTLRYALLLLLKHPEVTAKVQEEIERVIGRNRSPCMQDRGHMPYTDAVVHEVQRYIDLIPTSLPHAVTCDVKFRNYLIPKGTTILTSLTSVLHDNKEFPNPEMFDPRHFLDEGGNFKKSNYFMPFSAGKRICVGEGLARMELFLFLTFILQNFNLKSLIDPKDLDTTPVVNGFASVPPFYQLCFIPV

[9] = biological target: Cytochrome P450 2D6 (Homo sapiens, UniProt P10635); experiment: Inhibition of CYP2D6 in human liver microsomes incubated in presence NADPH by LC-MS/MS analysis
Sequence of Cytochrome P450 2D6 (P10635 whole entry): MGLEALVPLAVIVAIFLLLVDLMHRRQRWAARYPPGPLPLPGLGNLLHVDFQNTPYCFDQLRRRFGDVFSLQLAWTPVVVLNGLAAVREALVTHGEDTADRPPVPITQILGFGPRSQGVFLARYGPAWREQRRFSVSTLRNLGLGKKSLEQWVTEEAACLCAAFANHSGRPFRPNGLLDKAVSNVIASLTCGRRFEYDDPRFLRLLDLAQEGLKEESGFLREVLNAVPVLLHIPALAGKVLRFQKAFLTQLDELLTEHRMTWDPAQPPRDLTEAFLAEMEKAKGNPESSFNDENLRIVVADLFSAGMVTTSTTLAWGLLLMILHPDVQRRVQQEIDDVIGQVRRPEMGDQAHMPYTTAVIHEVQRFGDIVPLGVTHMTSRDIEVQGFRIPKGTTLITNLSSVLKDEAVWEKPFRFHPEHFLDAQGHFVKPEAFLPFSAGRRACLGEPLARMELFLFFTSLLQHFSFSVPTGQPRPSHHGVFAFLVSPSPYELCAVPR

[10] = Plasma protein binding in rat assessed as unbound fraction at 2 uM incubated for 4 hrs by LC/MS/MS based balanced dialysis method
[11] = Microsomal stability in rat liver microsomes assessed as intrinsic clearance at 1 uM incubated for 60 mins in presence of NADPH regenerating system by LC-MS/MS analysis; format: ADME, Microsome; details: read-out: CLH
[12] = biological target: Cytochrome P450 2C9 (Homo sapiens, UniProt P11712); experiment: Inhibition of CYP2C9 in human liver microsomes incubated in presence NADPH by LC-MS/MS analysis
Sequence of Cytochrome P450 2C9 (P11712 whole entry): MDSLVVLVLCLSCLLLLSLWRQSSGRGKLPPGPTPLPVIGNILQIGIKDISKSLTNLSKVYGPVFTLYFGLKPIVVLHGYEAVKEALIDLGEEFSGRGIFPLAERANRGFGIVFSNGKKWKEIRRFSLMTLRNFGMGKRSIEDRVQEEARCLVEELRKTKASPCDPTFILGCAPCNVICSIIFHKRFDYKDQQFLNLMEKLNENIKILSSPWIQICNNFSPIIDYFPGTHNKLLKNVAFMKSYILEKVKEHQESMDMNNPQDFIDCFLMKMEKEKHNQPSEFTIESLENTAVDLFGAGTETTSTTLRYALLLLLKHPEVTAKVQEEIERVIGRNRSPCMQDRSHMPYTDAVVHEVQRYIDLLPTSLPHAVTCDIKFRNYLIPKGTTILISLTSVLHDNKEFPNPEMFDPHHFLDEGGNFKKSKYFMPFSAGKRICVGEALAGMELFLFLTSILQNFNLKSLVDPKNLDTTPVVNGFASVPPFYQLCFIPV

[13] = Microsomal stability in mouse liver microsomes assessed as intrinsic clearance at 1 uM incubated for 60 mins in presence of NADPH regenerating system by LC-MS/MS analysis; format: ADME, Microsome; details: read-out: CLH
[14] = Microsomal stability in human liver microsomes assessed as intrinsic clearance at 1 uM incubated for 60 mins in presence of NADPH regenerating system by LC-MS/MS analysis; format: ADME, Microsome; details: read-out: CLH
[15] = Apparent permeability across basolateral to apical side in human Caco-2 cells at 10 uM measured after 120 mins by LC-MS/MS analysis
[16] = species on record: Homo sapiens; experiment: Selectivity index, ratio of IC50 for inhibition of recombinant human JAK2 to IC50 for inhibition of recombinant human JAK1
[17] = Metabolic stability in rat hepatocytes assessed as intrinsic clearance at 1 uM incubated for 90 mins by LC/MS/MS analysis; format: ADME, cell-based, Hepatocyte
[18] = species on record: Homo sapiens; experiment: Selectivity index, ratio of IC50 for inhibition of recombinant human TYK2 to IC50 for inhibition of recombinant human JAK1
[19] = Efflux ratio of apparent permeability from basolateral to apical side over apical to basolateral side in human Caco-2 cells at 10 uM incubated for 120 mins by LC-MS/MS analysis
[20] = biological target: Cytochrome P450 3A4 (Homo sapiens, UniProt P08684); experiment: Inhibition of CYP3A4 in human liver microsomes incubated in presence NADPH by LC-MS/MS analysis
Sequence of Cytochrome P450 3A4 (P08684 whole entry): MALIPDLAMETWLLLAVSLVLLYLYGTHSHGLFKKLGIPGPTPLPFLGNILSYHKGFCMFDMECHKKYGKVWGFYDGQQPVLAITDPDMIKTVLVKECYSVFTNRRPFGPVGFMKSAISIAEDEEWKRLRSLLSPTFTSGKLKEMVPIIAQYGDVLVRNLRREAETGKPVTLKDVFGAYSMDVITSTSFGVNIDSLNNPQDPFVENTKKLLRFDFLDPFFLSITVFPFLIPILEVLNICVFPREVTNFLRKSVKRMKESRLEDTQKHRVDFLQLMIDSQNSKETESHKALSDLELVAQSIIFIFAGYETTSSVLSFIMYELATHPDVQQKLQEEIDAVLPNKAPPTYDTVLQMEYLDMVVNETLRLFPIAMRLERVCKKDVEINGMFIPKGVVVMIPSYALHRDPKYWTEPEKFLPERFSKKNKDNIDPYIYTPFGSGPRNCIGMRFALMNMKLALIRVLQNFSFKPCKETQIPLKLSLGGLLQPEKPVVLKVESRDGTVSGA

[21] = biological target: T3, Cytochrome P450 1A2 (Homo sapiens, UniProt P05177); experiment: Inhibition of CYP1A2 in human liver microsomes incubated in presence NADPH by LC-MS/MS analysis
T3 sequence (P05177 whole entry): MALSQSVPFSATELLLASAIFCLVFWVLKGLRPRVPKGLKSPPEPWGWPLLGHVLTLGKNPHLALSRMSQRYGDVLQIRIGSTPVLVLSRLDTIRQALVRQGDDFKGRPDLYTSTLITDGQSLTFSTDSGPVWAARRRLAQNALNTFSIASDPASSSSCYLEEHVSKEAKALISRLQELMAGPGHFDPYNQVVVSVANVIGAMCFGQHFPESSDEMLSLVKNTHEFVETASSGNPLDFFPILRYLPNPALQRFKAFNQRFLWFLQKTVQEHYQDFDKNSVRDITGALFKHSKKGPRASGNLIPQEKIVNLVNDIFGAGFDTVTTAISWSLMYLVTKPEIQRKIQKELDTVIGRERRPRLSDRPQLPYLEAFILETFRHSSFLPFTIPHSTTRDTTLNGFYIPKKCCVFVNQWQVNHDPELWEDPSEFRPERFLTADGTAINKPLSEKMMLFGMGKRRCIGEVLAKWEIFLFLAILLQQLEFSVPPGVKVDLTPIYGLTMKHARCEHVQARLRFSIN

[22] = test system: Mus musculus; experiment: Antiarthritic activity in collagen-induced rheumatoid arthritis DBA/1 mouse model assessed as reduction in clinical score AUC at 15 mg/kg, po BID administered for 14 days starting from 7 days before immunization to 21 days after immunization and measured on day 41 post immunization; format: functional, organism-based; details: time 14.0 day
[23] = test system: Mus musculus; experiment: Antiarthritic activity in collagen-induced rheumatoid arthritis DBA/1 mouse model assessed as reduction in incidence rate at 15 mg/kg, po BID administered for 14 days starting from 7 days before immunization to 21 days after immunization and measured post last dose; format: functional; parameters: scale not given: the % may be the effect or the level left; details: time 14 day

Structure (SMILES)	fraction unbound at 4 h, 2 µM [1]	Papp A→B at 2 h, 10 µM [2] [×10⁻⁶ cm/s]	IC50 [3] [µM]	IC50 [4] [µM]	fraction unbound at 4 h, 2 µM [5]	CLH [6] [µL/min/mg]	CLH [7] [µL/min/mg]	IC50 [8] [µM]	IC50 [9] [µM]	fraction unbound at 4 h, 2 µM [10]	microsomal CLint at 1 µM [11] [µL/min/mg]	IC50 [12] [µM]	microsomal CLint at 1 µM [13] [µL/min/mg]	microsomal CLint at 1 µM [14] [µL/min/mg]	Papp B→A at 2 h, 10 µM [15] [×10⁻⁶ cm/s]	CLH [17] [µL/min/mg]	IC50 [20] [µM]	IC50 [21] [µM]	other results
O=C(Nc1nc2cccc(C3CCC(NC(=O)C4(F)CC4)CC3)n2n1)C1CC1 (stereo not drawn)	0.306	4.36	> 100	> 100	0.28	15.3	< 6.4	> 100	> 100	0.196	< 9.6	> 100	10.6	< 9.6	28.6	< 6.4	> 100	> 100	Ratio IC50 [16]: 11.6; Ratio IC50 [18]: 4.1; efflux ratio at 2 h, 10 µM [19]: 6.57
N#CCC(=O)N1CC2(CCC(c3cccc4nc(NC(=O)C5CC5)nn34)CC2)C1	0.515	0.1	> 100	> 100	0.479	< 6.6	< 6.4	> 100	> 100	0.544	< 9.6	> 100	< 9.6	< 9.6	20.4	< 6.4	> 100	> 100	
O=C(Nc1nc2cccc(-c3ccc(CN4CCS(=O)(=O)CC4)cc3)n2n1)C1CC1 [FILGOTINIB]	0.518		> 100	> 100	0.316	22.3	< 6.4	88.2	> 100	0.399	< 9.6	> 100	< 9.6	< 9.6	24.5	< 6.4		65.6	Papp ([2]; caco-2, 2 h, 10 µM): 0.28 10^-6 cm/s; Activity [22]: Active; Activity [23]: 100%
